Read-outs that look alike come from different tables or passages of the source.
Tests used:
Assay type in all cases: cell-based
l(2)mbn cells = experiment: cytotoxicity in Drosophila l(2)mbn cells; conditions: for Luminescence Raw1: replicate 1; for % viability, viability 1: replicate 1, relative to DMSO 1%; for Luminescence Raw2: replicate 2; for % viability, viability 2: replicate 2, relative to DMSO 1%; for IC50: cytotoxicity
Experimental: (§1) We screened the DDPs on the Drosophila assay system for cytotoxicity, inhibitory activity of innate immune signalling and insecticidal activity. The cytotoxicity of the DDPs was evaluated using two cell lines, embryonic macrophage-derived DL1 cells[58]–[60] and larval blood cell-derived l(2)mbn cells, and their IC50 values are listed in Supplementary Table 23.

DL1 cells = experiment: cytotoxicity in Drosophila DL1 cells; conditions: DL1 cells; for % viability, viability 1: replicate 1, relative to DMSO 1%; for % viability, viability 2: replicate 2, relative to DMSO 1%; for IC50: cytotoxicity
Experimental: as §1

[1] = test system: human immunodeficiency virus-1 (HIV-1); experiment: anti-HIV MAGI assay; conditions: anti-HIV
Text: (§2) We examined the inhibitory activities of DDPs against various species of bacteria (both gram-negative and gram-positive bacteria), fungi and viruses. […] In contrast, preliminary screening of the DDPs for anti-viral agents with hepatitis B virus (HBV), measles virus (MV), Epstein-Barr virus (EBV), herpes simplex virus (HSV) and human immunodeficiency virus-1 (HIV-1) indicated their selective inhibition of HIV.

[2] = cytotoxicity in Drosophila l(2)mbn cells; conditions: Drosophila, l(2)mbn cells (larval blood cell-derived)
Experimental: as §1

[3] = cytotoxicity in Drosophila DL1 cells; conditions: Drosophila, DL1 cells (embryonic macrophage-derived), DL1 cells
Experimental: as §1

MAGI cells = experiment: cytotoxicity in the anti-HIV assay (CC50); conditions: single determinations
Text: as §2
Policy information about cell lines […]
HeLa-CD4-LTR/ !-galactosidase (MAGI) cells provided by Dr. J. Overbaugh through the NIH AIDS Research and Reference […]
MAGI cells were authenticated by the NIH.
Mycoplasma contamination All the cell lines tested negative for mycoplasma contamination.
Commonly misidentified lines No commonly mis-identified cell lines. […]

[4] = average of two replicates, read-out: IC50 Average
[5] = replicate 1, read-out: IC50 (1)
[6] = replicate 2, read-out: IC50 (2)
[7] = Human immunodeficiency virus 1, MAGI, average of numeric determinations, read-out: Avg. EC50
[8] = replicate 1, relative to DMSO 1%, read-out: % viability, viability 1
[9] = replicate 2, relative to DMSO 1%, read-out: % viability, viability 2

SMILES: C=C1CCC2C(C)(CCC=C(C)C)C(O)CCC2(C)C1Cc1c(O)c(C)c(C)oc1=O (centres unmarked) [Compound 4]
- Luminescence Raw1 (l(2)mbn cells; 0.04 µM): 5839335
- % viability, viability 1 (l(2)mbn cells; 0.04 µM): 92.9944%
- Luminescence Raw2 (l(2)mbn cells; 0.04 µM): 5201728
- % viability, viability 2 (l(2)mbn cells; 0.04 µM): 82.8402%
- Luminescence Raw1 (l(2)mbn cells; 0.2 µM): 5720253
- % viability, viability 1 (l(2)mbn cells; 0.2 µM): 91.0979%
- Luminescence Raw2 (l(2)mbn cells; 0.2 µM): 5444207
- % viability, viability 2 (l(2)mbn cells; 0.2 µM): 86.7018%
- Luminescence Raw1 (l(2)mbn cells; 1 µM): 5427969
- % viability, viability 1 (l(2)mbn cells; 1 µM): 86.4432%
- Luminescence Raw2 (l(2)mbn cells; 1 µM): 5886607
- % viability, viability 2 (l(2)mbn cells; 1 µM): 93.7472%
- Luminescence Raw1 (l(2)mbn cells; 4 µM): 5612720
- % viability, viability 1 (l(2)mbn cells; 4 µM): 89.3854%
- Luminescence Raw2 (l(2)mbn cells; 4 µM): 6637959
- % viability, viability 2 (l(2)mbn cells; 4 µM): 105.713%
- Luminescence Raw1 (l(2)mbn cells; 10 µM): 900951
- % viability, viability 1 (l(2)mbn cells; 10 µM): 14.3481%
- Luminescence Raw2 (l(2)mbn cells; 10 µM): 1318179
- % viability, viability 2 (l(2)mbn cells; 10 µM): 20.9927%
- Luminescence Raw1 (l(2)mbn cells; 20 µM): 296971
- % viability, viability 1 (l(2)mbn cells; 20 µM): 4.729%
- Luminescence Raw2 (l(2)mbn cells; 20 µM): 325456
- % viability, viability 2 (l(2)mbn cells; 20 µM): 5.183%
- IC50 (l(2)mbn cells; [4]): 6.44 µM
- IC50 (l(2)mbn cells; average±SEM, read-out: IC50): 6.44 ± 0.94 µM
- IC50 (l(2)mbn cells; [5]): 5.5 µM
- IC50 (l(2)mbn cells; [6]): 7.39 µM
- Luminescence Raw1 (DL1 cells; 0.04 µM, replicate 1): 2757856
- % viability, viability 1 (DL1 cells; 0.04 µM): 201.087%
- Luminescence Raw2 (DL1 cells; 0.04 µM, replicate 2): 3026942
- % viability, viability 2 (DL1 cells; 0.04 µM): 220.707%
- Luminescence Raw1 (DL1 cells; 0.2 µM, replicate 1): 2720705
- % viability, viability 1 (DL1 cells; 0.2 µM): 198.378%
- Luminescence Raw2 (DL1 cells; 0.2 µM, replicate 2): 3168342
- % viability, viability 2 (DL1 cells; 0.2 µM): 231.017%
- Luminescence Raw1 (DL1 cells; 1 µM, replicate 1): 2448745
- % viability, viability 1 (DL1 cells; 1 µM): 178.548%
- Luminescence Raw2 (DL1 cells; 1 µM, replicate 2): 2704113
- % viability, viability 2 (DL1 cells; 1 µM): 197.168%
- Luminescence Raw1 (DL1 cells; 4 µM, replicate 1): 345570
- % viability, viability 1 (DL1 cells; 4 µM): 25.197%
- Luminescence Raw2 (DL1 cells; 4 µM, replicate 2): 345209
- % viability, viability 2 (DL1 cells; 4 µM): 25.1707%
- Luminescence Raw1 (DL1 cells; 10 µM, replicate 1): 299777
- % viability, viability 1 (DL1 cells; 10 µM): 21.858%
- Luminescence Raw2 (DL1 cells; 10 µM, replicate 2): 341603
- % viability, viability 2 (DL1 cells; 10 µM): 24.9077%
- Luminescence Raw1 (DL1 cells; 20 µM, replicate 1): 287878
- % viability, viability 1 (DL1 cells; 20 µM): 20.9904%
- Luminescence Raw2 (DL1 cells; 20 µM, replicate 2): 302301
- % viability, viability 2 (DL1 cells; 20 µM): 22.0421%
- IC50 (DL1 cells; [4]): 1.54 µM
- IC50 (DL1 cells; average±SEM, read-out: IC50): 1.54 ± 0.08 µM
- IC50 (DL1 cells; [5]): 1.61 µM
- IC50 (DL1 cells; [6]): 1.46 µM
- EC50 [1, 7]: 0.592 µM

SMILES: C=C1CCC2C(C)(CCC=C(C)C)C(O)CCC2(C)C1Cc1c(O)c(C)c(C)oc1=O (centres unmarked) [Compound 9, higginsianin B]
- Luminescence Raw1 (l(2)mbn cells; 0.04 µM): 5700406
- Luminescence Raw2 (l(2)mbn cells; 0.04 µM): 5730357
- Luminescence Raw1 (l(2)mbn cells; 0.2 µM): 5787371
- Luminescence Raw2 (l(2)mbn cells; 0.2 µM): 5991618
- Luminescence Raw1 (l(2)mbn cells; 1 µM): 5334874
- Luminescence Raw2 (l(2)mbn cells; 1 µM): 5292296
- Luminescence Raw1 (l(2)mbn cells; 4 µM): 375575
- % viability, viability 1 (l(2)mbn cells; 4 µM): 5.981%
- Luminescence Raw2 (l(2)mbn cells; 4 µM): 295889
- % viability, viability 2 (l(2)mbn cells; 4 µM): 4.712%
- Luminescence Raw1 (l(2)mbn cells; 10 µM): 141567
- % viability, viability 1 (l(2)mbn cells; 10 µM): 2.255%
- Luminescence Raw2 (l(2)mbn cells; 10 µM): 144091
- % viability, viability 2 (l(2)mbn cells; 10 µM): 2.295%
- Luminescence Raw1 (l(2)mbn cells; 20 µM): 140485
- % viability, viability 1 (l(2)mbn cells; 20 µM): 2.2373%
- Luminescence Raw2 (l(2)mbn cells; 20 µM): 188801
- IC50 (l(2)mbn cells; [4]): 1.54 µM
- IC50 (l(2)mbn cells; average±SEM, read-out: IC50): 1.54 ± 0.01 µM
- IC50 (l(2)mbn cells; [5]): 1.54 µM
- IC50 (l(2)mbn cells; [6]): 1.54 µM
- viability at 0.04 µM [2, 8]: 90.8%
- viability at 0.04 µM [2, 9]: 91.3%
- viability at 0.2 µM [2, 8]: 92.2%
- viability at 0.2 µM [2, 9]: 95.4%
- viability at 1 µM [2, 8]: 85%
- viability at 1 µM [2, 9]: 84.3%
- viability at 20 µM ([2]; 20 µM, replicate 2, relative to DMSO 1%, read-out: % viability, viability 2): 3.01%
- Luminescence Raw1 (DL1 cells; 0.04 µM, replicate 1): 3124696
- % viability, viability 1 (DL1 cells; 0.04 µM): 227.835%
- Luminescence Raw2 (DL1 cells; 0.04 µM, replicate 2): 2770120
- Luminescence Raw1 (DL1 cells; 0.2 µM, replicate 1): 2602758
- Luminescence Raw2 (DL1 cells; 0.2 µM, replicate 2): 2435040
- % viability, viability 2 (DL1 cells; 0.2 µM): 177.549%
- Luminescence Raw1 (DL1 cells; 1 µM, replicate 1): 371891
- % viability, viability 1 (DL1 cells; 1 µM): 27.1162%
- Luminescence Raw2 (DL1 cells; 1 µM, replicate 2): 463117
- % viability, viability 2 (DL1 cells; 1 µM): 33.7678%
- Luminescence Raw1 (DL1 cells; 4 µM, replicate 1): 286075
- Luminescence Raw2 (DL1 cells; 4 µM, replicate 2): 310594
- Luminescence Raw1 (DL1 cells; 10 µM, replicate 1): 279225
- Luminescence Raw2 (DL1 cells; 10 µM, replicate 2): 288960
- Luminescence Raw1 (DL1 cells; 20 µM, replicate 1): 263360
- Luminescence Raw2 (DL1 cells; 20 µM, replicate 2): 246413
- IC50 (DL1 cells; [4]): 0.361 µM
- IC50 (DL1 cells; average±SEM, read-out: IC50): 0.36 ± 0.03 µM
- IC50 (DL1 cells; [5]): 0.328 µM
- IC50 (DL1 cells; [6]): 0.394 µM
- viability at 0.04 µM ([3]; 0.04 µM, replicate 2, relative to DMSO 1%, read-out: % viability, viability 2): 202%
- viability at 0.2 µM ([3]; 0.2 µM, replicate 1, relative to DMSO 1%, read-out: % viability, viability 1): 190%
- viability at 4 µM [3, 8]: 20.9%
- viability at 4 µM [3, 9]: 22.6%
- viability at 10 µM [3, 8]: 20.4%
- viability at 10 µM [3, 9]: 21.1%
- viability at 20 µM [3, 8]: 19.2%
- viability at 20 µM [3, 9]: 18%
- EC50 ([1]; single determinations, read-out: Efficacy (EC50)): > 10 µM

SMILES: CC(C)=CCC/C(C)=C/CC/C(C)=C/CC/C(C)=C/Cc1c(O)c(C)c(C)oc1=O [Compound 2]
- Cytotoxicity (MAGI cells): >10 µM
- EC50 [1, 7]: 0.157 µM
